One test has as its target T1, CDK2/CyclinA (Homo sapiens, UniProt P24941).
T1 construct: purchased Proqinase
The test is described as follows: Lance Ultra KinaSelect Assay, CDK2. The class given is biochemical. As to conditions: ULight MBP substrate, ATP 3 μM; read-out: CDK2 LANCE assay (activity range), IC50. As to the method:
This protocol describes how the Lance Ultra KinaSelect Assay was performed to determine half maximal inhibitory concentration (IC50) of compounds of general formula (I) and CDK/Cyclin complexes. The principle behind this enzymatic assay is based upon the phosphorylation of the ULight-Peptide Substrat. It is detected by using a specific EU-labeled anti-phospho peptide antibody. The binding of the Eu-labeled anti-phospho peptide antibody to the phosphorylated ULight labeled peptide gives rise to a FRET-signal. Binding of an inhibitor to the kinase prevents phosphorylation of the ULight-MBP Substrat, resulting in a loss of FRET.
The compounds of general formula (I) summarized in Table 5 were diluted from a 10 mM DMSO stock solution 1:10 in a total volume of 15 μL DMSO. This compound predilution was then serial diluted 1:3 over 8 steps in DMSO and briefly spun down. Each compound solution was now diluted 1:20 in Enzymatic Buffer (HEPES: 50 mM, pH: 7.5; MgCl2: 10 mM; EGTA: 1 mM; DTT: 2 mM; Tween-20: 0.01%), mixed thoroughly and spun down. For every sample, 2 μL of the diluted compound were mixed with 6 μL CDK/Cyclin/Substrat solution and 2 μL ATP solution in a well of a small volume 384 well plate (Corning Incorporated, Corning, N.Y., USA; order no. 3673). The CDK/Cyclin was diluted to the appropriate concentration (see Table 3) and the ATP concentration was adjusted to its […] for the CDK/Cyclin, which was 3 μM for CDK2/Cyclin A, 20 μM for CDK1/Cyclin B1, 25 μM for CDK7/Cyclin H and CDK9/Cyclin T1, 55 μM for CDK6/Cyclin D3, 90 μM for CDK4/Cyclin D1 and 125 μM for CDK9/Cyclin K. For negative controls, in each well 2 μL of DMSO solution (1% final DMSO assay concentration) was mixed with 6 μL substrate solution (50 nM ULight MBP final assay concentration) and 2 μL ATP solution (appropriate final concentration see Table 3). For positive controls, in each well 2 μL of DMSO solution (1% final DMSO assay concentration) was mixed with 6 μL CDK/Cyclin/Substrat (appropriate final concentration see Table 3) and 2 μL Tracer ATP solution (appropriate final concentration see Table 3). Positive and negative controls were calculated from at least 8 different sample wells. The 384 well plates were mixed in a Teleshaker plate mixer (Beckman Coulter, Brea, Calif., USA) at 2000 rpm for 40 sec, and incubated for 1 h at room temperature. Before reading, 10 μL the detection buffer (Lance Detection Buffer 1×; EDTA: […]; Eu-Anti-P-MBP: see Table 3) was added. The FRET signal was measured at 340 nm excitation, 665 nm and 615 nm emission (for the kinase tracer and LanthaScreen Eu-AB, respectively) with an Envision spectrophotometer (Perkin Elmer, Waltham, Mass., USA) with 50 μs delay and 300 μs integration time. IC50 values were determined from the sigmoidal dose response curves with the software Quattro Workflow (Quattro GmbH, Munich, Germany).
For orientation: In TR-FRET formats the signal depends on donor and acceptor labels being close together.

The subject of a further test is Hela cells. The test is described as follows: Cell viability assay, Hela cells. To be noted: Homo sapiens, 72 h, Cell Titer Glo, read-out: Cell Viability - Hela cells (activity range), IC50. It counts as cell-based. As to the method:
Hela- or MDAMB468-Cells were maintained in RPMI 1640 or McCoy's 5A cell culture medium+glutamine (PAN Biotech GmbH, Aidenbach, Germany; order no. P04-22100; P04-05500) supplemented with 10% fetal calf serum “Gold” (PAA Laboratories GmbH, Pasching, Austria; order no. A15-151) and grown at 37° C., 5% CO2. For the cell viability assay, cells were seeded with a density of 400 (Hela cells, DSMZ Braunschweig order no. ACC57) or 800 (MDAMB468 cells, ATCC order no. HTB-132) per well in 25 μL in 384-well plates (Greiner Bio-One, Frickenhausen, Germany; order no. 781080). After overnight incubation at 37° C./5% CO2, 25 nL or 75 nL compound were added to each sample well by using BIOMEK FXP Laboratory Automation Workstation (Beckman Coulter, USA). Wells with cells and 0.1% or 0.3% DMSO in culture medium were used as positive controls, wells with cells and 10 μM staurosporine in culture medium were used as negative controls. The cells were incubated with the compounds for 72 h at 37° C./5% CO2. For measurement of cell viability 25 μL Cell Titer Glo reagent (Promega, Madison, USA; order no. G7573), 1:2 diluted with cell culture medium, was added to each well. The 384 well-plates were placed for 2 min on a orbital microplate shaker and incubated for further 10 min at room temperature to stabilize the luminescence signal. Luminescence was measured by Envision Plate Reader (Perkin Elmer, USA). IC50 values were calculated with the software Excel Fit (IDBS, Guildford, UK) from 3-fold dilution series comprising at least 8 concentrations in duplicates.
A general note: Cellular ATP, detected with luciferase, serves as a proxy for viable cell number.

Broadly, the IC50 is the concentration that inhibits the measured activity by half. With `COc1ccccc1-c1ccnc(Nc2cccc(S(N)(=O)=O)c2)c1` [Compound D1, 3-[(4-(2-Methoxyphenyl)pyridin-2-yl)amino]benzenesulfonamide], the IC50 on CDK2/CyclinA and in the test with Hela cells was 100 to 1000 nM each time.
As to `COc1cc(F)ccc1-c1ccnc(Nc2cccc(NS(C)(=O)=O)c2)c1` [Compound J1, N-[3-((4-(4-Fluoro-2-methoxyphenyl)pyridin-2-yl)amino)phenyl]-methanesulfonamide], the IC50 on CDK2/CyclinA lay in the range of 100 to 1000 nM; in the test on Hela cells it was 1000 to 10000 nM.
For `COc1cc(F)ccc1-c1ccnc(Nc2cccc(CS(=O)(=O)N(C)C)c2)c1` [Compound G3, 1-[3-((4-(4-Fluoro-2-methoxyphenyl)pyridin-2-yl)amino)phenyl]-N,N-dimethylmethanesulfonamide], in that order: 1000 to 10000 nM and over 10000 nM.
For `COc1ccccc1-c1ccnc(Nc2ccc(S(N)(=O)=O)cc2)c1` [Compound E1, 4-[(4-(2-Methoxyphenyl)pyridin-2-yl)amino]benzenesulfonamide] the same measures were under 100 nM and over 10000 nM.
Regarding `COc1ccccc1-c1ccnc(Nc2cccc(S(C)(=O)=O)c2)c1` [Compound F1, 4-(2-Methoxyphenyl)-N-(3-(methylsulfonyl)phenyl)pyridin-2-amine], the IC50 with Hela cells fell in the range of 1000 to 10000 nM.
With `COc1cc(F)ccc1-c1ccnc(Nc2cccc(CS(N)(=O)=O)c2)c1` [Compound G1, [3-((4-(4-Fluoro-2-methoxyphenyl)pyridin-2-yl)amino)phenyl]-methanesulfonamide], the 50% inhibitory concentration (IC50) at CDK2/CyclinA and with Hela cells was 1000 to 10000 nM each time.
On to `COc1cc(F)ccc1-c1ccnc(Nc2cccc(NC(C)=O)c2)c1` [Compound J2, N-[3-((4-(4-Fluoro-2-methoxyphenyl)pyridin-2-yl)amino)phenyl]-acetamide], for which the IC50 on CDK2/CyclinA is 100 to 1000 nM; in the test on Hela cells it was over 10000 nM.
`CCCNS(=O)(=O)Cc1cccc(Nc2cc(-c3ccc(F)cc3OC)ccn2)c1` [Compound K1, 1-[3-((4-(4-Fluoro-2-methoxyphenyl)pyridin-2-yl)amino)phenyl]-N-propylmethanesulfonamide]: the IC50 on CDK2/CyclinA is 1000 to 10000 nM; in the test on Hela cells, over 10000 nM.
